From PubChem BioAssay AID743494 (The Scripps Research Institute Molecular Screening Center, 2014) come the findings set out here.

Activity calls are given as the source filed them. No rule for the calls is given here.

This assay has as its system Ga16 counterscreen cells, calcium fluorescence antagonism. Kind of assay: Ga16 cell calcium inhibition, analog series – fluorescence, dose response, MedChem round 1, counter-screen for TAAR1 agonist project, SAR follow-up (AID 743494). In general terms: Counterscreens check selectivity or assay interference.
Regarding `O=C(CCN1CCC(O)(c2ccccc2)C1)c1ccc2c(c1)OCCO2` (stereo unspecified), the IC50 was > 29.9 µM (inactive).
For `CC(CN1CCC(c2ccccc2)C1)C(=O)c1ccc2c(c1)OCCO2` (stereo unspecified), the IC50 was > 29.9 µM (inactive).
For `O=C(CCN1C[C@@H](C(=O)O)[C@H](c2ccccc2)C1)NCc1cccs1` the value was > 29.9 µM (inactive).
As for `O=C(CCN1CCC(O)(c2ccc(F)cc2)C1)c1ccc2c(c1)OCCO2` (stereo unspecified), the IC50 was > 29.9 µM (inactive).
With `Cc1ccc(C(=O)CCN2CCC(c3ccccc3)C2)cc1` (stereo unspecified), the IC50 is > 29.9 µM (inactive).
For `NC(=O)CCN1C[C@H](c2ccccc2)[C@@H]2[C@H]1C1CCN2CC1` the value was > 29.9 µM (inactive); for `O=C(CCN1C[C@@H](C(=O)O)[C@H](c2cccc(F)c2)C1)NC1CC1`, > 29.9 µM (inactive).
Turning to `O=C(CCN1C[C@@H](C(=O)O)[C@H](c2ccccc2)C1)NC1CCCC1`, the IC50 is > 29.9 µM (inactive).
As for `O=C(CCN1CCC(c2ccccc2)C1)c1ccccc1` (stereo unspecified), the IC50 was > 29.9 µM (inactive).
For `CC(CN1CCCC1Cc1ccccc1)C(=O)c1ccc2c(c1)OCCO2` (stereo unspecified) the value was > 29.9 µM (inactive); for `CC1CN(CCC(=O)c2ccc3c(c2)OCCO3)CC1c1ccccc1` (stereo unspecified), > 29.9 µM (inactive).

What is called IC50 is the concentration at which inhibition is half-maximal.
